Where two headings read alike, the source gives them in different places.
Tests used:
wild oat = assay: Test B postemergence herbicide test; format: in vivo, Avena fatua; settings: for pest or weed control at 125 g/ha / pest or weed control at 500 g/ha: Avena fatua, post-emergence, 336 h, read-out: Oat, Wild plant response rating; for Plant response rating, Oat, Wild: visual rating after 13 to 15 days
Method in brief: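 After treating 2-leaf paddy plants or 2–18 cm postemergence plants (1 to 4 leaves) with formulated chemical, researchers kept them in a greenhouse for 13–15 days. Effects were judged visually versus controls: 0 indicates none, 100 total control.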

pigweed = assay: Test B pre-/postemergence herbicide test; format: in vivo, Amaranthus retroflexus; settings: for pest or weed control at 500 g/ha / pest or weed control at 125 g/ha: Amaranthus retroflexus, 336 h
Method in brief: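 Herbicidal effect was judged by eye on a 0–100 scale after plants stood 13 to 15 days in the greenhouse following pre- or postemergence treatment with surfactant-containing formulations.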

morningglory = assay: Test A pre-/postemergence herbicide test; format: in vivo, Ipomoea spp.; settings: for pest or weed control at 500 g/ha / pest or weed control at 2000 g/ha: Ipomoea, 240 h
Method in brief: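 Plants are held in greenhouse about ten days after treatment, then compared with untreated controls and scored 0 (no effect) to 100 (complete control). Preemergence dosing is a directed soil spray on sown sandy loam; postemergence dosing is spray to runoff at 2–10 cm height.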

[1] = Postemergence, 500 g ai/ha, scale 0 (no effect) to 100 (complete control)
[2] = pre-emergence, preemergence, 125 g ai/ha, 0 to 100 scale, 0 is no effect, 100 is complete control, read-out: Plant response rating, Pigweed
[3] = post-emergence, Postemergence, 2000 g ai/ha, 0 to 100 scale, 0 no effect, 100 complete control, read-out: Plant response rating, Morningglory
[4] = pre-emergence, Preemergence, 500 g ai/ha, visual rating, 0 to 100 scale (0 no effect, 100 complete control), read-out: Morningglory plant response rating
[5] = postemergence, 125 g ai/ha, visual rating, scale 0 (no effect) to 100 (complete control)
[6] = Postemergence, 500 g ai/ha, visual rating after 13 to 15 days, scale 0 (no effect) to 100 (complete control)
[7] = preemergence, 125 g ai/ha, 0 to 100 scale, 0 is no effect, 100 is complete control
[8] = Postemergence, 500 g ai/ha, 0 to 100 scale, 0 no effect, 100 complete control
[9] = Postemergence, 2000 g ai/ha, 0 to 100 scale, 0 no effect, 100 complete control
[10] = Preemergence, 500 g ai/ha, visual rating, 0 to 100 scale (0 no effect, 100 complete control)
[11] = Preemergence, 2000 g ai/ha, 0 to 100 scale, 0 no effect, 100 complete control
[12] = postemergence, 500 g ai/ha, visual rating, scale 0 (no effect) to 100 (complete control)
[13] = post-emergence, postemergence, 125 g ai/ha, visual rating, scale 0 (no effect) to 100 (complete control), read-out: Pigweed plant response rating
[14] = post-emergence, postemergence, 500 g ai/ha, visual rating, scale 0 (no effect) to 100 (complete control), read-out: Pigweed plant response rating
[15] = pre-emergence, 125 g ai/ha, 0 = no effect, 100 = complete control, read-out: Pigweed plant response rating (0 to 100 scale)
[16] = pre-emergence, 500 g ai/ha, visual rating, 0 = no effect, 100 = complete control, read-out: Plant response rating, Pigweed
[17] = postemergence, 500 g ai/ha, scale 0 to 100, 0 is no effect, 100 is complete control
[18] = post-emergence, postemergence, 500 g ai/ha, scale 0 to 100, 0 is no effect, 100 is complete control, read-out: Pigweed plant response rating
[19] = 125 g ai/ha, 0 = no effect, 100 = complete control, preemergence
[20] = 125 g ai/ha, visual rating, scale 0 (no effect) to 100 (complete control), postemergence
[21] = 125 g ai/ha, 0 is no effect, 100 is complete control, preemergence
[22] = postemergence, 125 g ai/ha, scale 0 to 100

CCn1nc(C(C)(C)C)cc1C(=O)Nc1cccc(C(=O)NCC(F)(F)F)c1 [Compound 43, 3-(1,1-dimethylethyl)-1-ethyl-N-[3-[[(2,2,2-trifluoroethyl)amino]carbonyl]-phenyl]-1H-pyrazole-5-carboxamide]
pest or weed control at 125 g/ha (wild oat; Postemergence, 125 g ai/ha, scale 0 (no effect) to 100 (complete control)): 10%
Plant response rating, Oat, Wild (wild oat; [1]): 30
pest or weed control at 500 g/ha (pigweed; post-emergence, Postemergence, 500 g ai/ha, visual rating after 13 to 15 days, scale 0 (no effect) to 100 (complete control), read-out: Plant response rating, Pigweed): 100%
pest or weed control at 500 g/ha (pigweed; pre-emergence, Preemergence, 500 g ai/ha, scale 0 to 100, read-out: Pigweed plant response rating): 100%
pest or weed control at 125 g/ha (pigweed; [2]): 100%
pest or weed control at 500 g/ha (morningglory; post-emergence, Postemergence, 500 g ai/ha, 0 to 100 scale, 0 no effect, 100 complete control, read-out: Plant response rating, Morningglory): 20%
pest or weed control at 2000 g/ha (morningglory; [3]): 30%
pest or weed control at 500 g/ha (morningglory; [4]): 10%
pest or weed control at 2000 g/ha (morningglory; pre-emergence, Preemergence, 2000 g ai/ha, 0 to 100 scale, 0 no effect, 100 complete control, read-out: Morningglory plant response rating): 40%

CCn1nc(C(C)(C)C)cc1C(=O)Nc1cccc(C(=O)NOC)c1 [Compound 67]
Plant response rating, Oat, Wild (wild oat; [1]): 30
Oat, Wild plant response rating (wild oat; [5]): 10
Plant response rating, Pigweed (pigweed; [6]): 20
Pigweed plant response rating (pigweed; [5]): 0
Plant response rating, Pigweed (pigweed; [7]): 0
Plant response rating, Morningglory (morningglory; [8]): 5
Plant response rating, Morningglory (morningglory; [9]): 20
Morningglory plant response rating (morningglory; [10]): 0
Morningglory plant response rating (morningglory; [11]): 30

CCOC(=O)c1cccc(NC(=O)c2cc(C(C)(C)C)nn2CCF)c1 [Compound 79]
Plant response rating, Oat, Wild (wild oat; [1]): 30
Oat, Wild plant response rating (wild oat; [5]): 20
Plant response rating, Pigweed (pigweed; [6]): 100
Pigweed plant response rating (pigweed; [5]): 70
Plant response rating, Pigweed (pigweed; [7]): 0
Plant response rating, Morningglory (morningglory; [8]): 15
Plant response rating, Morningglory (morningglory; [9]): 25
Morningglory plant response rating (morningglory; [10]): 20
Morningglory plant response rating (morningglory; [11]): 60

C=CCn1nc(C(C)(C)C)cc1C(=O)Nc1cccc(C(C)=NO)c1 [Compound 117]
Plant response rating, Oat, Wild (wild oat; [1]): 20
Oat, Wild plant response rating (wild oat; [5]): 10
Plant response rating, Pigweed (pigweed; 500 g ai/ha, visual rating 0-100, 0 no effect, 100 complete control, preemergence): 90
Plant response rating, Pigweed (pigweed; [6]): 90
Pigweed plant response rating (pigweed; [5]): 50
Plant response rating, Pigweed (pigweed; [7]): 60
Morningglory plant response rating (morningglory; [8]): 20
Plant response rating, Morningglory (morningglory; [9]): 70
Morningglory plant response rating (morningglory; [10]): 45
Morningglory plant response rating (morningglory; Preemergence, 2000 g ai/ha, visual rating, 0 to 100 scale (0 no effect, 100 complete control)): 75

CCn1nc(C(C)(C)C)cc1C(=O)Nc1cccc(C(=O)OC)n1 [Compound 143, methyl 6-[[[3-(1,1-dimethylethyl)-1-ethyl-1H-pyrazol-5-yl]carbonyl]amino]-2-pyridinecarboxylate]
pest or weed control at 125 g/ha (wild oat; [5]): 0%
pest or weed control at 500 g/ha (wild oat; [12]): 20%
pest or weed control at 125 g/ha (pigweed; [13]): 0%
pest or weed control at 500 g/ha (pigweed; [14]): 20%
pest or weed control at 500 g/ha (pigweed; pre-emergence, 500 g ai/ha, visual rating 0-100, 0 no effect, 100 complete control, read-out: Plant response rating, Pigweed): 0%
pest or weed control at 125 g/ha (pigweed; [2]): 0%
pest or weed control at 500 g/ha (morningglory; post-emergence, Postemergence, 500 g ai/ha, 0 to 100 scale, 0 no effect, 100 complete control, read-out: Morningglory plant response rating): 10%
pest or weed control at 2000 g/ha (morningglory; [3]): 25%
pest or weed control at 500 g/ha (morningglory; [4]): 0%
pest or weed control at 2000 g/ha (morningglory; pre-emergence, Preemergence, 2000 g ai/ha, visual rating, 0 to 100 scale (0 no effect, 100 complete control), read-out: Morningglory plant response rating): 0%

CCn1nc(C(C)(C)C)cc1C(=O)Nc1ccc(F)c(C(=O)N(C)C)c1 [Compound 236, N-[3-[(dimethylamino)carbonyl]-4-fluorophenyl]-3-(1,1-dimethylethyl)-1-ethyl-1H-pyrazole-5-carboxamide]
pest or weed control at 125 g/ha (wild oat; [5]): 20%
pest or weed control at 500 g/ha (wild oat; [12]): 20%
pest or weed control at 125 g/ha (pigweed; [13]): 60%
pest or weed control at 500 g/ha (pigweed; [14]): 70%
pest or weed control at 125 g/ha (pigweed; [15]): 30%
pest or weed control at 500 g/ha (pigweed; [16]): 90%

CCNC(=O)c1cc(NC(=O)c2cn(C(C)(C)C)nc2CC)ccc1F [Compound 241, 1-(1,1-dimethylethyl)-3-ethyl-N-[3-[(ethylamino)carbonyl]-4-fluorophenyl]-1H-pyrazole-4-carboxamide]
pest or weed control at 125 g/ha (wild oat; [5]): 0%
pest or weed control at 500 g/ha (wild oat; [17]): 20%
pest or weed control at 125 g/ha (pigweed; [13]): 30%
pest or weed control at 500 g/ha (pigweed; [18]): 50%
pest or weed control at 125 g/ha (pigweed; [15]): 100%
pest or weed control at 500 g/ha (pigweed; [16]): 100%

CCn1nc(C(C)(C)C)cc1C(=O)Nc1cc(C(=O)OC(C)C)c(F)cc1F [Compound 248]
Oat, Wild plant response rating (wild oat; [5]): 30
Oat, Wild plant response rating (wild oat; [17]): 60
Pigweed plant response rating (0 to 100 scale) (pigweed; [19]): 0
Pigweed plant response rating (pigweed; [5]): 60
Pigweed plant response rating (pigweed; [17]): 80

CCOC(=O)c1ccc(F)c(NC(=O)c2cc(C3(C)CC3)nn2CC)c1 [Compound 296]
Oat, Wild plant response rating (wild oat; [20]): 30
Oat, Wild plant response rating (wild oat; [17]): 40
Pigweed plant response rating (0 to 100 scale) (pigweed; [19]): 70
Pigweed plant response rating (pigweed; [20]): 80
Plant response rating, Pigweed (pigweed; 500 g ai/ha, visual rating, 0 = no effect, 100 = complete control, preemergence): 80
Pigweed plant response rating (pigweed; [17]): 100

CCc1nn(C(C)C)nc1C(=O)Nc1cccc(C(=O)N(C)C)c1 [Compound 358, N-[3-[(dimethylamino)carbonyl)phenyl]-5-ethyl-2-(1-methylethyl)-2H-1,2,3-triazole-4-carboxamide]
pest or weed control at 125 g/ha (wild oat; 125 g ai/ha, visual rating, scale 0 (no effect) to 100 (complete control)): 20%
pest or weed control at 500 g/ha (wild oat; [17]): 30%
Plant response rating (0 to 100 scale), Pigweed (pigweed; [21]): 70
pest or weed control at 125 g/ha (pigweed; post-emergence, 125 g ai/ha, visual rating, scale 0 (no effect) to 100 (complete control), read-out: Pigweed plant response rating): 20%
pest or weed control at 500 g/ha (pigweed; [18]): 40%
pest or weed control at 500 g/ha (pigweed; [16]): 100%

C#CCNC(=O)c1cccc(NC(=O)c2nn(C(C)(C)C)nc2CC)c1 [Compound 380]
Oat, Wild plant response rating (wild oat; [20]): 10
Oat, Wild plant response rating (wild oat; [1]): 30
Plant response rating (0 to 100 scale), Pigweed (pigweed; [21]): 100
Pigweed plant response rating (pigweed; [20]): 50
Pigweed plant response rating (pigweed; [1]): 80

C#CCOc1cccc(NC(=O)c2cc(C(C)(C)C)nn2CC)c1 [Compound 411]
Oat, Wild plant response rating (wild oat; [1]): 50
Oat, Wild plant response rating (wild oat; [22]): 40
Plant response rating (0 to 100 scale), Pigweed (pigweed; [21]): 30
Pigweed plant response rating (pigweed; [1]): 90
Pigweed plant response rating (pigweed; [22]): 80

C=CCOc1cccc(NC(=O)c2cc(C(C)(C)C)nn2CC)c1 [Compound 412]
Oat, Wild plant response rating (wild oat; [1]): 40
Oat, Wild plant response rating (wild oat; [22]): 30
Plant response rating (0 to 100 scale), Pigweed (pigweed; [21]): 50
Pigweed plant response rating (pigweed; [1]): 100
Pigweed plant response rating (pigweed; [22]): 90
